Measurements published in ChEMBL document CHEMBL3792322, “Metabolic investigation on ZL006 for the discovery of a potent prodrug for the treatment of cerebral ischemia” (Bioorg Med Chem Lett, 2016).
Activity calls are given as the source filed them. The rule behind the calls is not given here.

Key:
[1] = test system: Mus musculus; experiment: Protective activity in BCCAO-induced mouse acute cerebral ischemia model assessed as prolonged surviving time at 4 mg/kg, iv measured 1 hr post dose; format: functional, organism-based
[2] = test system: Mus musculus; experiment: Protective activity in BCCAO-induced mouse acute cerebral ischemia model assessed as prolonged surviving time at 4 mg/kg, iv measured 4 hrs post dose; format: functional, organism-based
[3] = test system: Brain; experiment: Drug metabolism in mouse brain assessed as ZL006 formation at 20 mg/kg, iv measured 15 to 30 mins post dosing by HPLC-MS/MS method; format: ADME, organism-based; conditions: in vivo
[4] = test system: Plasma; experiment: Metabolic stability in mouse plasma at 20 mg/kg, iv measured 15 to 30 mins post dosing by HPLC-MS/MS method; format: ADME, organism-based; conditions: in vivo
[5] = test system: Rattus norvegicus; experiment: Protective activity in iv dosed MCAO-induced rat focal cerebral ischemia model assessed as reduction in infarct size treated at 1 hr post reperfusion measured after 24 hrs by TTC-staining based analysis; format: functional, organism-based
[6] = test system: Rattus norvegicus; experiment: Protective activity in MCAO-induced rat focal cerebral ischemia model assessed as reduction in infarct size at 2 mg/kg, iv administered 1 hr post reperfusion measured after 24 hrs by TTC-staining based analysis; format: functional, organism-based
[7] = test system: Rattus norvegicus; experiment: Protective activity in MCAO-induced rat focal cerebral ischemia model assessed as reduction in infarct size at 1 mg/kg, iv administered 1 hr post reperfusion measured after 24 hrs by TTC-staining based analysis; format: functional, organism-based
[8] = test system: Brain; experiment: Drug uptake in mouse brain at 20 mg/kg, iv measured 15 to 30 mins post dosing by HPLC-MS/MS method; format: ADME, organism-based; conditions: in vivo

| Structure (SMILES) | Activity [1] | Activity [2] | Drug metabolism [3] | Stability [4] | Activity [5] | Activity [6] | Activity [7] | Drug uptake [8] |
| --- | --- | --- | --- | --- | --- | --- | --- | --- |
| CCOC(=O)c1ccc(NCc2cc(Cl)cc(Cl)c2O)cc1O | Active | Active | metabolite_detected | Stable | – | – | – | – |
| O=C(OC1CCCCC1)c1ccc(NCc2cc(Cl)cc(Cl)c2O)cc1O | Active | Active | metabolite_detected | Stable | Dose-dependent effect | inactive | Active | – |
| COC(=O)c1ccc(NCc2cc(Cl)cc(Cl)c2O)cc1O | Active | – | metabolite_detected | Stable | – | – | – | – |
| COc1cc(NCc2cc(Cl)cc(Cl)c2O)ccc1C(=O)O | – | – | metabolite_notdetected | Unstable | – | – | – | Not Active |
| COc1c(Cl)cc(Cl)cc1CNc1ccc(C(=O)O)c(O)c1 | – | – | metabolite_notdetected | – | – | – | – | – |
| CN(Cc1cc(Cl)cc(Cl)c1O)c1ccc(C(=O)O)c(O)c1 | – | – | metabolite_notdetected | – | – | – | – | Not Active |
